Data published in US20250186445A1, “TREATMENT OF CANCER WITH MENIN INHIBITORS AND IMMUNO-ONCOLOGY AGENTS” (University Health Network, priority 2022, published 2025).
“Also recorded” adds a separate entry of the source.

Assays:
[1] = system: CT26 cells; test: Cytokine gene expression in CT26 cells in 2D culture treated with Compound I; type: cell-based, mouse; conditions: FIG. 5A
[2] = system: MC38 cells; test: Cytokine gene expression in MC38 cells in 2D culture treated with Compound I; type: cell-based; conditions: FIG. 5B
[3] = system: CT26 colorectal carcinomas; test: CT26 colorectal carcinoma tumor growth in immunocompetent (BALB/c) mice; type: in vivo, mouse
Text: Effects of Compound I in combination with PD-L1/PD-1 immune checkpoint blockade on tumor growth were investigated in CT26 tumors.

CNc1nc(NC2CCN(Cc3ccc4c(cc(C#N)n4C[C@H](C)N4CCN(S(C)(=O)=O)CC4)c3C)CC2)c2cc(CC(F)(F)F)sc2n1 [Compound I]
induction of cytokine-related genes (IL33, CXCL10, CXCL9, CD40, CCL4) [1]: Dose-dependent induction; also recorded: induces cytokine gene expression | cytokine gene expression [2]: induces cytokine gene expression | tumor growth ([3]; BALB/c mice bearing CT26, 100 mg/kg orally QD, FIG. 6A): reduced tumor growth | CD8+ T-cell infiltration ([3]; CT26 tumors in BALB/c mice, FIGS. 6B-C): increased CD8+ T-cell infiltration | reduction in tumor growth with concomitant anti-CD8 antibody ([3]; CT26 tumors in BALB/c mice, concomitant anti-CD8 antibody, FIG. 6D): could be blocked | CT26 tumor growth, combination of Compound I and anti-PD-1 antibody ([3]; CT26 tumors, combination with anti-PD-1 antibody, FIG. 7): the combination enhanced the activity of anti-PD1 immunotherapy | CT26 tumor growth, single agent ([3]; CT26 tumors, each agent alone, FIG. 7): substantially reduced
